Results from EP4549150A1, “RESIN COMPOSITION FOR THREE-DIMENSIONAL PRINTING” (Cubicure GmbH, priority 2023, dated 2025).
Marks after values point to notes of the source that are not given here.

Tests used:
Assay type in all cases: physicochemical
[1] = Photo-DSC photo-reactivity study; details: 50°C, 365 nm, 1% w/w TPO-L; for t95%: time when 95% of the total heat of polymerization has evolved; for tmax: time when maximum heat evolution was reached
Procedure: Photo-DSC (differential scanning calorimetry) studies were performed using a Netzsch DSC 204 F1 containing an autosampler and coupled to an intracooler IC85 cooling device. The system was connected to an Omnicure LX500 controller with a 365 nm LED and the power intensity was set on the sample at 17 mW cm^-2 (measured using a Thorlabs SMC100 powermeter and the corresponding S310C thermal power head). The test samples were mixed in a vortex mixer for 3 minutes with 1% w/w of TPO-L (a commercially available photoinitiator) and then […] were transferred to an aluminum crucible without lid. All experiments were conducted under Nitrogen atmosphere (flow = 20 mL/min) at 50°C and the samples were irradiated for 5 minutes. Triplicate DSC measurements were performed for each example. The measured heat of polymerization (ΔH) was calculated by integrating the area under the curve from 0 to 200 s.
Here, tmax is the time when maximum heat evolution was reached and t95% corresponds to the point when 95% of the total heat of polymerization has evolved (0 s corresponds to the moment when light is triggered). The double bound conversion (DBC) was calculated from the experimentally obtained heat of polymerization and the theoretical polymerization enthalpy indicated in the literature (56 kJ mol^-1 for methacrylates).

[2] = Volatility: weight loss after 24 hours in oven; details: for weight loss relative to example 1: ratio to weight loss of example 1
Procedure: Volatility can be assessed from the weight lost after 24 hours, and is preferably below 10%, more preferably below 5% and even more preferable below 1% at the process temperature (between 30 and 150°C). For the determination of the volatility of the compounds 25 mL flasks (Ø 30 mm) with approximately 2 grams of the test compound were placed in a Memmert oven at 50 °C and 80°C for 24 hours and the volatility was determined as the weight loss in percent (w/w).

[3] = Viscosity by rheology (temperature ramp, cone-plate rheometer); details: shear rate 60 s^-1
Procedure: Viscosity is another crucial parameter on the development of a reactive diluent. To obtain an effective reactive diluent, monomers providing a low viscosity need to be obtained. The referred viscosity is preferably between 5 and 100 mPa.s, more preferably between 5 and 50 mPa.s, and even more preferably 5 and 20 mPa.s. The presented viscosities refer to the process temperature which can be between 30-150°C. The viscosity was determined via rheology. Rheology measurements were performed using an Anton Paar MCR 102 rheometer, equipped with a P-PTD 200/GL Peltier glass plate and an H-PTD200 heating hood. For measuring the rheological properties, a temperature ramp experiment was performed from 25-100°C with a heating rate of 0.5°C min^-1, using a CP25 measurement system (cone plate with a 2° angle and 25 mm diameter) at a gap distance of 0.1 mm and with a shear rate of 60 s^-1.

[4] = Dynamic Mechanical Analysis (DMA) of printed specimens; details: increasing the percentage of reactive diluent from 10 to 30% in X-851-1066
Procedure: For the (thermo)mechanical tests and water uptake tests, Example 1 or Reference 2 were mixed with two commercially available oligomers, namely Ebecryl 8811 (Allnex) a difunctional aliphatic urethane acrylate and BR-952 (Bomar) a difunctional aliphatic urethane methacrylate in different ratios.
For the sample preparation a speedmixer (DAC 150.1 FVZ-K, Hauschild) was used. 70 g of the total formulation was mixed at 3000 rpm for 10 minutes. After that the resin composition was degassed until no air bubbles were released.
Test specimens were printed on a Cubicure Caligma 200 DLP 405 nm. Light Pulse Duration was set to 6000, corresponding to 1.5 s total exposure time, and print speed to 20 mm/s. Processing temperature was 35°C, due to the high volatility of Reference 2.
Dynamic Mechanical Analysis (DMA) of the printed specimens measuring 50x5x1 mm^3 was performed using a DMA8000 Dynamic Mechanical Analyzer from PerkinElmer. The measurements were performed using the tension mode, from 30-160 °C with a heating rate of 2°C min^-1 and frequency of 1 Hz. In these experiments the evolution of the storage modulus G' with increasing temperature was observed and the Tg was determined (maximum value for tan δ).

| Molecule | t95% [1] [s] | tmax [1] [s] | Volatility [weight loss %] ([2]; 50°C) [%] | Volatility [weight loss %] ([2]; 80°C) | Viscosity ([3]; 25°C (room temperature)) [mPa.s] | Viscosity ([3]; 40°C) [mPa.s] | Viscosity ([3]; 50°C) [mPa.s] | Viscosity ([3]; 70°C) [mPa.s] | Viscosity ([3]; 90°C) [mPa.s] | Viscosity ([3]; 100°C) [mPa.s] | Viscosity ([3]; 25°C (room temperature), listed as Example 4) [mPa.s] | decrease of Tg of the photopolymer [4] [%] | Viscosity ([3]; 25°C (room temperature), listed as Example 5) [mPa.s] | Viscosity ([3]; 40°C, listed as example 5) [mPa.s] | weight loss relative to example 1 ([2]; 80°C) |
| --- | --- | --- | --- | --- | --- | --- | --- | --- | --- | --- | --- | --- | --- | --- | --- |
| C=C(C)C(=O)OC1CCCCC1OC(=O)C1CCCCC1 (stereo not drawn) [Ex2, 2-(cyclohexylcarbonyloxy)cyclohexyl methacrylate] | 66 | 17 | 1 | 14% | 27 | 17 | 12 | 7 | 4 | 4 |  |  |  |  |  |
| C=C(C)C(=O)OC1CCCCC1OC(=O)Cc1ccccc1 (stereo not drawn) [Ex4, 2-(benzylcarbonyloxy)cyclohexyl methacrylate] | 174 | 26 | 0.09 | 17% | 110 | 53 | 31 | 13 | 8 | 7 | 174 |  |  |  |  |
| C=C(C)C(=O)OC1CCCCC1OC(=O)C(C)(C)C (stereo not drawn) [Ex3, 2-(isopropenylcarbonyloxy)cyclohexyl 2,2-dimethylpropionate] | 87 | 51 | 2.7 | 21% | 13 | 9 | 6 | 4 | 2 | 2 |  |  |  |  |  |
| C=C(C)C(=O)OC1CCCCC1O (stereo not drawn) [Ex1, 2-hydroxycyclohexyl methacrylate] | 43 | 14 | 5 | 20% | 53 | 26 | 16 | 7 | 4 | 3 |  | 4 |  |  |  |
| C=C(C)C(=O)OC1CCCCC1OC(=O)C(CC)CCCC (stereo not drawn) [Ex5, 2-(isopropenylcarbonyloxy)cyclohexyl 2-ethylhexanoate] |  |  | 0.6 | 1.9** % | 174 | 101 | 65 | 34 | 20 | 19 |  |  | 110 | 53 |  |
| C=C(C)C(=O)OCCO [Ref2, 2-hydroxyethylmethacrylate, reference compound] | 65 | 43 | 34 | 89% | 6 | 4 | 3 | 2 | 1 | 1 |  | 13 |  |  | more than 4 times |
| Isobornyl methacrylate [Ref1, reference compound] | 67 | 36 | 12 | 65% | 8 | 6 | 4 | 3 | 2 | 2 |  |  |  |  | 3 times |
